Source: patent publication US5344765A, “DNA encoding polypeptides with activity against gram-positive and gram-negative bacteria” (priority 1993, dated 1994)
Square brackets hold non-standard residues; d marks the D form. Ends that are not written are not given here. Peptide text beside a SMILES is read from it. hSer = N[C@@H](CCO)C(=O)O

How the values were obtained:
Escherichia coli = assay: halo assay, activity per nanomole; type: cell-based; conditions: per nanomole of polypeptide applied to well
Experimental: (§1) The assay for antimicrobial activity was performed by pouring 10 ml of agar in TYE media containing about 10^7 viable cells of the test organisms. Wells, 2 mm in diameter, were punched in the agar plates. Aliquots of the modified cecropin-like polypeptides (2-12 ul) were then added to each well. The diameter of the inhibition zones, or haloes, around the wells, were measured after overnight incubation at 25° C.
(§2) The cecropin-like polypeptide modified at the carboxy terminus with ehtylenediamine and naturally occurring cecropin A were tested against a variety of organisms. The relative activities of the antimicrobial agents were expressed per nanomole of polypeptide applied to each well (Table 3).

Bacillus megaterium = conditions: from the literature; cited from earlier work
S. faecalis = assay: halo (inhibition zone) agar assay of bactericidal activity; type: cell-based, Streptococcus faecalis
Experimental: as §1
(§3) The activities of various cecropin-like polypeptides were tested against both Gram-negative and Gram-positive organisms. Anti-microbial activity against the Gram-negative organisms remained unaltered for most of the Gram-negative bacteria (except, i.e., Serratia marcescens) as shown in Table 1. […] To determine a standard of halo formation, the various modified cecropin-like polypeptides were also applied to E. coli D21. Activity shown in Tables 1 and 2 is expressed as the ratio of the radius of the cleared halo for each organism versus that for E. coli D21.
as §2

M. luteus = assay: as above; type: cell-based; conditions: Micrococcus luteus; per nanomole of polypeptide applied to well
Experimental: as §1, §3, §2

B. subtilis = assay: as above; type: cell-based; conditions: Bacillus subtilus; per nanomole of polypeptide applied to well
Experimental: as §1, §3, §2

B. megaterium = assay: as above; type: cell-based, Bacillus megaterium; conditions: for Relative activity: ratio of the radius of the cleared halo versus that for E. coli D21: B. megaterium, overnight incubation at 25° C.
Experimental: as §1, §3, §2

Row | Compound | Sensitivity of Bacillus megaterium to cecropin (Bacillus megaterium) | Relative activity: ratio of the radius of the cleared halo versus that for E. coli D21 (B. megaterium) | also measured
1 | KWKLFKKIEKVGQNIRDGIIKAGPAVAVVGQATQIAK-NH2 [CA--NH2, cecropin A] | highly sensitive | 0.7 ± 0.05 | Activity per Nanomole (radius of the inhibitory ring) (Escherichia coli): 6.1 millimeters; Activity per Nanomole (radius of the inhibitory ring) (S. faecalis; Streptococcus faecalis, per nanomole of polypeptide applied to well): < 0.5 millimeters; Activity per Nanomole (radius of the inhibitory ring) (M. luteus): 6.1 millimeters; Activity per Nanomole (radius of the inhibitory ring) (B. subtilis): < 0.5 millimeters; Activity per Nanomole (radius of the inhibitory ring) (B. megaterium; Bacillus megaterium, per nanomole of polypeptide applied to well): 5.1 millimeters
2 | cecropin D | relatively resistant |  | 
3 | CC[C@H](C)[C@H](NC(=O)CNC(=O)[C@H](CC(=O)O)NC(=O)[C@H](CCCNC(=N)N)NC(=O)[C@@H](NC(=O)[C@H](CC(N)=O)NC(=O)[C@H](CCC(N)=O)NC(=O)CNC(=O)[C@@H](NC(=O)[C@H](CCCCN)NC(=O)[C@H](CCC(=O)O)NC(=O)[C@@H](NC(=O)[C@H](CCCCN)NC(=O)[C@H](CCCCN)NC(=O)[C@H](Cc1ccccc1)NC(=O)[C@H](CC(C)C)NC(=O)[C@H](CCCCN)NC(=O)[C@H](Cc1c[nH]c2ccccc12)NC(=O)[C@@H](N)CCCCN)[C@@H](C)CC)C(C)C)[C@@H](C)CC)C(=O)N[C@H](C(=O)N[C@@H](CCCCN)C(=O)N[C@@H](C)C(=O)NCC(=O)N1CCC[C@H]1C(=O)N[C@@H](C)C(=O)N[C@H](C(=O)N[C@@H](C)C(=O)N[C@H](C(=O)N[C@H](C(=O)NCC(=O)N[C@@H](CCC(N)=O)C(=O)N[C@@H](C)C(=O)N[C@H](C(=O)N[C@@H](CCC(N)=O)C(=O)N[C@H](C(=O)N[C@@H](C)C(=O)N[C@@H](CCCCN)C(=O)N[C@@H](CCO)C(N)=O)[C@@H](C)CC)[C@@H](C)O)C(C)C)C(C)C)C(C)C)[C@@H](C)CC [CA--HS--NH2] (H-KWKLFKKIEKVGQNIRDGIIKAGPAVAVVGQATQIAK[hSer]-NH2) |  | 0.4 ± 0.2 | Relative activity: ratio of the radius of the cleared halo versus that for E. coli D21 (S. faecalis; S. faecalis, overnight incubation at 25° C.): 0
4 | KWKLFKKIEKVGQNIRDGIIKAGPAVAVVGQATQIAK [CA--COOH] |  | 0.2 ± 0.08 | 
5 | cecropin B (KWKVFKKIEKMGRNIRNGIVKAGPAIAVLGEAKAL; ends and bridges not checked; UniProt P01508 27-61, looked up) [natural antibacterial peptide purified from immune hemolymph] | highly sensitive |  | 
6 | CC[C@H](C)[C@H](NC(=O)CNC(=O)[C@H](CC(=O)O)NC(=O)[C@H](CCCNC(=N)N)NC(=O)[C@@H](NC(=O)[C@H](CC(N)=O)NC(=O)[C@H](CCC(N)=O)NC(=O)CNC(=O)[C@@H](NC(=O)[C@H](CCCCN)NC(=O)[C@H](CCC(=O)O)NC(=O)[C@@H](NC(=O)[C@H](CCCCN)NC(=O)[C@H](CCCCN)NC(=O)[C@H](Cc1ccccc1)NC(=O)[C@H](CC(C)C)NC(=O)[C@H](CCCCN)NC(=O)[C@H](Cc1c[nH]c2ccccc12)NC(=O)[C@@H](N)CCCCN)[C@@H](C)CC)C(C)C)[C@@H](C)CC)C(=O)N[C@H](C(=O)N[C@@H](CCCCN)C(=O)N[C@@H](C)C(=O)NCC(=O)N1CCC[C@H]1C(=O)N[C@@H](C)C(=O)N[C@H](C(=O)N[C@@H](C)C(=O)N[C@H](C(=O)N[C@H](C(=O)NCC(=O)N[C@@H](CCC(N)=O)C(=O)N[C@@H](C)C(=O)N[C@H](C(=O)N[C@@H](CCC(N)=O)C(=O)N[C@H](C(=O)N[C@@H](C)C(=O)N[C@@H](CCCCN)C(=O)N[C@@H](CCO)C(=O)O)[C@@H](C)CC)[C@@H](C)O)C(C)C)C(C)C)C(C)C)[C@@H](C)CC [CA--HS--COOH] (H-KWKLFKKIEKVGQNIRDGIIKAGPAVAVVGQATQIAK[hSer]-OH) |  | 0.5 ± 0.1 | 
